From the NIST ThermoML archive (doi:10.1021/je0501843)

Test: wn = mass fraction of the nth substance listed
Details: Fluid (supercritical or subcritical phases), isochoric method, w1 = 0.5001

FC(F)C(F)(F)F [pentafluoroethane] + FCF
Details	mass density [kg/m3]
301 K, 4414 kPa	1071.2
302 K, 4977 kPa	1071
303 K, 5537 kPa	1070.9
303 K, 5540 kPa	1070.9
304 K, 6101 kPa	1070.8
304 K, 6103 kPa	1070.8
305 K, 6663 kPa	1070.6
306 K, 7227 kPa	1070.5
306 K, 7228 kPa	1070.5
307 K, 7791 kPa	1070.4
307 K, 7792 kPa	1070.4
308 K, 8356 kPa	1070.2
308 K, 8357 kPa	1070.2
309 K, 8918 kPa	1070.1
310 K, 9482 kPa	1070
310 K, 9484 kPa	1070
311 K, 10048 kPa	1069.8
311 K, 10049 kPa	1069.8
312 K, 10614 kPa	1069.7
312 K, 10615 kPa	1069.7
313 K, 11178 kPa	1069.6
313 K, 11179 kPa	1069.6
314 K, 11741 kPa	1069.4
314 K, 11743 kPa	1069.4
315 K, 12309 kPa	1069.3
316 K, 12875 kPa	1069.2
316 K, 12877 kPa	1069.2
317 K, 13440 kPa	1069
318 K, 14003 kPa	1068.9
318 K, 14005 kPa	1068.9
319 K, 14570 kPa	1068.8
319 K, 14571 kPa	1068.8
320 K, 15135 kPa	1068.6
320 K, 15137 kPa	1068.6
321 K, 15700 kPa	1068.5
321 K, 15701 kPa	1068.5
322 K, 16263 kPa	1068.4
322 K, 16265 kPa	1068.4
323 K, 16830 kPa	1068.2
324 K, 17394 kPa	1068.1
324 K, 17396 kPa	1068.1
325 K, 5448 kPa	946.2
325 K, 17959 kPa	1068
325 K, 17961 kPa	1068
326 K, 5835 kPa	946.1
326 K, 5836 kPa	946.1
326 K, 18524 kPa	1067.8
326 K, 18525 kPa	1067.8
327 K, 6224 kPa	946
327 K, 6225 kPa	946
327 K, 19088 kPa	1067.7
327 K, 19090 kPa	1067.7
328 K, 6615 kPa	945.9
328 K, 6616 kPa	945.9
328 K, 19652 kPa	1067.6
328 K, 19655 kPa	1067.6
329 K, 7006 kPa	945.8
329 K, 7007 kPa	945.8
330 K, 7397 kPa	945.7
330 K, 7399 kPa	945.7
331 K, 7788 kPa	945.6
331 K, 7790 kPa	945.6
332 K, 8183 kPa	945.5
332 K, 8184 kPa	945.5
333 K, 8579 kPa	945.4
334 K, 8970 kPa	945.4
334 K, 8971 kPa	945.4
335 K, 9364 kPa	945.3
336 K, 9759 kPa	945.2
337 K, 10156 kPa	945.1
337 K, 10157 kPa	945.1
338 K, 6179 kPa	859.9
338 K, 10552 kPa	945
338 K, 10553 kPa	945
339 K, 6478 kPa	859.9
339 K, 10948 kPa	944.9
340 K, 6782 kPa	859.8
340 K, 11344 kPa	944.8
340 K, 11346 kPa	944.8
341 K, 7089 kPa	859.7
341 K, 11743 kPa	944.7
341 K, 11745 kPa	944.7
342 K, 7389 kPa	859.6
342 K, 12139 kPa	944.6
342 K, 12142 kPa	944.6
343 K, 7693 kPa	859.6
343 K, 12536 kPa	944.5
343 K, 12538 kPa	944.5
344 K, 7998 kPa	859.5
344 K, 12935 kPa	944.4
344 K, 12936 kPa	944.4
345 K, 8306 kPa	859.4
345 K, 13334 kPa	944.3
346 K, 8612 kPa	859.3
346 K, 13733 kPa	944.2
347 K, 6281 kPa	761.1
347 K, 8917 kPa	859.3
347 K, 14131 kPa	944.1
348 K, 6505 kPa	761.1
348 K, 9225 kPa	859.2
348 K, 14528 kPa	944
349 K, 5380 kPa	475.9
349 K, 6732 kPa	761
349 K, 9535 kPa	859.1
349 K, 14929 kPa	943.9
350 K, 5486 kPa	475.9
350 K, 5543 kPa	525.9
350 K, 5720 kPa	615
350 K, 6957 kPa	761
350 K, 9844 kPa	859
350 K, 15331 kPa	943.8
351 K, 5591 kPa	475.9
351 K, 5661 kPa	525.9
351 K, 5866 kPa	615
351 K, 7184 kPa	760.9
351 K, 10153 kPa	859
351 K, 15729 kPa	943.7
352 K, 5697 kPa	475.9
352 K, 5778 kPa	525.9
352 K, 5877 kPa	571.5
352 K, 6013 kPa	615
352 K, 7411 kPa	760.8
352 K, 10462 kPa	858.9
352 K, 16128 kPa	943.6
353 K, 5802 kPa	475.9
353 K, 5898 kPa	525.9
353 K, 6010 kPa	571.5
353 K, 6163 kPa	615
353 K, 7640 kPa	760.8
353 K, 10771 kPa	858.8
353 K, 16529 kPa	943.5
354 K, 5907 kPa	475.9
354 K, 6017 kPa	525.8
354 K, 6144 kPa	571.4
354 K, 6312 kPa	614.9
354 K, 7867 kPa	760.7
354 K, 11082 kPa	858.7
354 K, 16929 kPa	943.4
355 K, 6013 kPa	475.9
355 K, 6136 kPa	525.8
355 K, 6277 kPa	571.4
355 K, 6460 kPa	614.9
355 K, 8099 kPa	760.7
355 K, 11393 kPa	858.7
355 K, 17330 kPa	943.3
356 K, 6119 kPa	475.9
356 K, 6256 kPa	525.8
356 K, 6409 kPa	571.4
356 K, 6610 kPa	614.9
356 K, 8331 kPa	760.6
356 K, 11703 kPa	858.6
356 K, 17728 kPa	943.3
357 K, 6227 kPa	475.9
357 K, 6375 kPa	525.8
357 K, 6544 kPa	571.4
357 K, 6762 kPa	614.8
357 K, 8563 kPa	760.6
357 K, 12015 kPa	858.5
357 K, 18129 kPa	943.2
358 K, 6332 kPa	475.9
358 K, 6496 kPa	525.8
358 K, 6679 kPa	571.3
358 K, 6913 kPa	614.8
358 K, 8795 kPa	760.5
358 K, 12328 kPa	858.4
358 K, 18529 kPa	943.1
359 K, 6438 kPa	475.9
359 K, 6616 kPa	525.8
359 K, 6814 kPa	571.3
359 K, 7064 kPa	614.8
359 K, 9028 kPa	760.4
359 K, 12639 kPa	858.4
359 K, 18928 kPa	943
360 K, 6544 kPa	475.9
360 K, 6737 kPa	525.8
360 K, 6948 kPa	571.3
360 K, 7219 kPa	614.7
360 K, 9258 kPa	760.4
360 K, 12952 kPa	858.3
361 K, 6650 kPa	475.8
361 K, 6858 kPa	525.7
361 K, 7085 kPa	571.3
361 K, 7368 kPa	614.7
361 K, 9493 kPa	760.3
361 K, 13265 kPa	858.2
362 K, 6758 kPa	475.8
362 K, 6980 kPa	525.7
362 K, 7222 kPa	571.2
362 K, 7523 kPa	614.7
362 K, 9726 kPa	760.3
362 K, 13581 kPa	858.1
363 K, 6864 kPa	475.8
363 K, 7101 kPa	525.7
363 K, 7357 kPa	571.2
363 K, 7676 kPa	614.6
363 K, 9958 kPa	760.2
